Experiments:
[1] = system: C57BL/6J mice at 20 months of age (Old Mice, OM); experiment: Forelimb grip strength (grip strength meter); type: in vivo; details: once daily by gavage for 4 months, vs OM group
Protocol: (§1) The healthy and male C57BL/6J mice at 20 months of age (Old Mice, OM) and at 2 months of age (Young Mice, YM) were maintained under the barrier conditions in a temperature-controlled environment and fed a commercial mouse chow. They were divided into the following five groups: (1) non-supplement young mice group (YM, n=5); (2) non-supplement old mice group (OM, n=5); (3)L-Ergothioneine supplement group with low dosage (OM+5 mg/kg/day, n=5); (4) L-Ergothioneine supplement group with moderate dosage (OM+15 mg/kg/day, n=5); and(5) L-Ergothioneine supplement group with high dosage (OM+45 mg/kg/day, n=5). All mice were administered L-Ergothioneine for once daily by gavage in normal saline solution for 4 months. Mice were euthanized by CO2 inhalation followed by cervical dislocation at the end of study and skeletal muscles were excised for an immediate isolation of mitochondria. Forelimb grip strength were analyzed using the rip strength meter (Bioseb, BIO-GS3) with mouse-specific wire grid (100×80 mm, angled 90° (vertical)), once per month during the study and at the end of the study. […] Statistical significance was determined using one-way ANOVA followed by Tukey's post hoc test (N=5, *P<0.05, **P<0.01, ***P<0.001 vs OM Group).

[2] = system: skeletal muscles mitochondria; experiment: ATP production, O2 consumption and P/O ratio in skeletal muscle mitochondria from treated mice; type: in vivo, C57BL/6J mice; details: isolated skeletal muscle mitochondria of old mice treated for 4 months, vs OM group
Protocol: as §1, with “mitochondria. Extracting skeletal muscles mitochondria from mice to measure ATP production and O2 consumption. ATP production was measured using a luciferase/luciferin based system. O2 consumption was measured using optical spectra. The all data” for “mitochondria. Forelimb grip strength”, “analyzed to identify” for “analyzed using”, “the L-Ergothioneine function for improving ATP production” for “the rip strength meter (Bioseb, BIO-GS3) with mouse-specific wire grid (100×80 mm, angled 90° (vertical)), once per month during the study”, “and O2 consumption.” for “and at the end of the study.”

[3] = system: C57BL/6J mice at 20 months of age (Old Mice, OM); experiment: Tissue weights of soleus and gastrocnemius muscle, age-induced muscle loss; type: in vivo; details: after 4 months administration by gavage, vs OM group
Protocol: The healthy and male C57BL/6J mice at 20 months of age (Old Mice, OM) and at 2 months of age (Young Mice, YM) were maintained under the barrier conditions in a temperature-controlled environment and fed a commercial mouse chow. They were divided into the following five groups: (1) non-supplement young mice group (YM, n=5); (2) non-supplement old mice group (OM, n=5); (3)L-Ergothioneine supplement group with low dosage (OM+5 mg/kg/day, n=5); (4) L-Ergothioneine supplement group with moderate dosage (OM+15 mg/kg/day, n=5); and(5) L-Ergothioneine supplement group with high dosage (OM+45 mg/kg/day, n=5). All mice were administered L-Ergothioneine for once daily by gavage in normal saline solution for 4 months. Mice were euthanized by CO2 inhalation followed by cervical dislocation at the end of study and skeletal muscles were excised for an immediate isolation of mitochondria. FIGS. 1A-1D show the test results related to effect of EGT treatment on age-induced muscle loss in mice monthly, particularly regarding body weight measurement (FIG. 1A), lean mass ratio (FIG. 1B), tissue weights of soleus muscle (FIG. 1C), and tissue weights of gastrocnemius muscle (FIG. 1D). Statistical significance was determined using one-way ANOVA followed by Tukey's post hoc test (N=5, *P<0.05, **P<0.01, vs OM Group).

[4] = Body weight and body composition (lean mass ratio) of old mice; type: in vivo, C57BL/6J mice; details: old mice, 5, 15 or 45 mg/kg/day by gavage for 4 months, vs OM group
Protocol: The healthy and male C57BL/6J mice at 20 months of age (Old Mice, OM) and at 2 months of age (Young Mice, YM) were maintained under the barrier conditions in a temperature-controlled environment and fed a commercial mouse chow. They were divided into the following five groups: (1) non-supplement young mice group (YM, n=5); (2) non-supplement old mice group (OM, n=5); (3)L-Ergothioneine supplement group with low dosage (OM+5 mg/kg/day, n=5); (4) L-Ergothioneine supplement group with moderate dosage (OM+15 mg/kg/day, n=5); and(5) L-Ergothioneine supplement group with high dosage (OM+45 mg/kg/day, n=5). All mice were administered L-Ergothioneine for once daily by gavage in normal saline solution for 4 months. Mice were euthanized by CO2 inhalation followed by cervical dislocation at the end of study and skeletal muscles were excised for an immediate isolation of mitochondria. The bodyweight of C57BL/6 mice was recorded before treatment, once per week during the study, and at the end of the study. Body composition (lean mass ratio) of mice was analyzed using the (NM42-[…]-1 system, Suzhou Niumag) before treatment, once per month during the study, and at the end of the study. […] Statistical significance was determined using one-way ANOVA followed by Tukey's post hoc test (N=5, *P<0.05, **P<0.01, vs OM Group).

[5] = system: C57BL/6J mice at 20 months of age (Old Mice, OM); experiment: Motor coordination on rotating rod (Time to Fall); type: in vivo; details: once daily by gavage for 4 months, vs OM group
Protocol: The healthy and male C57BL/6J mice at 20 months of age (Old Mice, OM) and at 2 months of age (Young Mice, YM) were maintained under the barrier conditions in a temperature-controlled environment and fed a commercial mouse chow. They were divided into the following five groups: (1) non-supplement young mice group (YM, n=5); (2) non-supplement old mice group (OM, n=5); (3)L-Ergothioneine supplement group with low dosage (OM+5 mg/kg/day, n=5); (4) L-Ergothioneine supplement group with moderate dosage (OM+15 mg/kg/day, n=5); and(5) L-Ergothioneine supplement group with high dosage (OM+45 mg/kg/day, n=5). All mice were administered L-Ergothioneine for once daily by gavage in normal saline solution for 4 months. Mice were euthanized by CO2 inhalation followed by cervical dislocation at the end of study and skeletal muscles were excised for an immediate isolation of mitochondria. Motor coordination deficits were performed by placing the mouse on a rotating rod (Beijing Zhishuduobao, DB093) and measuring how long it takes before mice fall off the rod (Time to Fall (s)). […] Statistical significance was determined using one-way ANOVA followed by Tukey's post hoc test (N=5, *P<0.05, **P<0.01, vs OM Group).

In the case of `C[N+](C)(C)[C@@H](Cc1c[nH]c(=S)[nH]1)C(=O)[O-]` [L-Ergothioneine], the forelimb grip strength [1] is reported as “ameliorating and preventing the loss of muscle grip strength”, the ATP synthesis [2] is reported as “increase of ATP synthesis” and the “P/O ratio (ATP produced per O2 consumed)” value [2] is reported as “increase of ATP synthesis and P/O ratio”. For the same molecule, the “weight of the gastrocnemius muscle” value [3] was “prevented this reduction”, the “weight of the soleus muscle” value [3] was “prevented this reduction” and the “body composition (lean mass ratio)” value [4] was “no significant difference”. The body weight [4] was “no significant difference” and the “time on rotating rod (Time to Fall)” value [5] was “prolong time of maintain on a rotating rod”.

— US20240082219A1, “METHODS FOR AMELIORATING AND PREVENTING AGE-RELATED MUSCLE DEGENERATION” (NANJING NUTRABUILDING BIO-TECH CO., LTD., priority 2021, published 2024)
